How the values were obtained:
[1] = 298.15 K; 101.33 kPa; Liquid; Vibrating tube method
[2] = refractive index (Na D-line) (dimensionless); conditions: 298.15 K; 101.33 kPa; Liquid; Standard Abbe refractometry
[3] = excess molar enthalpy (molar enthalpy of mixing); xn = mol fraction of the nth substance listed; conditions: 298.15 K, 101 kPa, Liquid, Flow calorimetry
[4] = xn = mol fraction of the nth substance listed; conditions: 298.15 K, 101 kPa, Liquid, Vibrating tube method

CC(Cl)CCl (stereo unspecified) [1,2-dichloropropane]
Conditions	mass density [kg/m3]	refractive index
[1]	1149.03	–
[2]	–	1.43656

CCOCCOCCOCCO [2-(2-(2-ethoxyethoxy)ethoxy)ethanol]
Conditions	mass density [kg/m3]	refractive index
[1]	1016.19	–
[2]	–	1.43623

CCOCCOCCOCCO [2-(2-(2-ethoxyethoxy)ethoxy)ethanol] + CC(Cl)CCl
Conditions	excess molar enthalpy [kJ/mol]	mass density [kg/m3]
[3], x2 = 0.067	-0.212	–
[3], x2 = 0.101	-0.275	–
[3], x2 = 0.164	-0.437	–
[3], x2 = 0.195	-0.505	–
[3], x2 = 0.253	-0.607	–
[3], x2 = 0.308	-0.6854	–
[3], x2 = 0.36	-0.7418	–
[3], x2 = 0.41	-0.7777	–
[3], x2 = 0.457	-0.7894	–
[3], x2 = 0.501	-0.7898	–
[3], x2 = 0.544	-0.7756	–
[3], x2 = 0.604	-0.728	–
[3], x2 = 0.66	-0.6572	–
[3], x2 = 0.695	-0.604	–
[3], x2 = 0.745	-0.512	–
[3], x2 = 0.807	-0.374	–
[3], x2 = 0.85	-0.274	–
[3], x2 = 0.904	-0.15	–
[3], x2 = 0.954	-0.055	–
[4], x2 = 0.0522	–	1020.53
[4], x2 = 0.1019	–	1024.84
[4], x2 = 0.1497	–	1029.19
[4], x2 = 0.2027	–	1034.17
[4], x2 = 0.2538	–	1039.19
[4], x2 = 0.3014	–	1044.06
[4], x2 = 0.3475	–	1048.98
[4], x2 = 0.4037	–	1055.22
[4], x2 = 0.4507	–	1060.69
[4], x2 = 0.5006	–	1066.74
[4], x2 = 0.553	–	1073.37
[4], x2 = 0.6023	–	1079.92
[4], x2 = 0.6499	–	1086.58
[4], x2 = 0.7036	–	1094.48
[4], x2 = 0.7524	–	1102.1
[4], x2 = 0.8009	–	1110.06
[4], x2 = 0.8494	–	1118.49
[4], x2 = 0.8988	–	1127.79
[4], x2 = 0.9495	–	1138.04

CCCOCCOCCO [2-(2-propoxyethoxy)ethanol]
Conditions	mass density [kg/m3]	refractive index
[1]	962.74	–
[2]	–	1.42727

CCCOCCOCCO [2-(2-propoxyethoxy)ethanol] + CC(Cl)CCl
Conditions	excess molar enthalpy [kJ/mol]	mass density [kg/m3]
[3], x2 = 0.06	-0.147	–
[3], x2 = 0.119	-0.251	–
[3], x2 = 0.147	-0.297	–
[3], x2 = 0.202	-0.374	–
[3], x2 = 0.255	-0.429	–
[3], x2 = 0.306	-0.4673	–
[3], x2 = 0.355	-0.4855	–
[3], x2 = 0.402	-0.4906	–
[3], x2 = 0.447	-0.4823	–
[3], x2 = 0.511	-0.449	–
[3], x2 = 0.552	-0.414	–
[3], x2 = 0.592	-0.376	–
[3], x2 = 0.648	-0.308	–
[3], x2 = 0.702	-0.235	–
[3], x2 = 0.753	-0.162	–
[3], x2 = 0.802	-0.0941	–
[3], x2 = 0.848	-0.0302	–
[3], x2 = 0.907	0.026	–
[3], x2 = 0.948	0.0378	–
[4], x2 = 0.054	–	969.58
[4], x2 = 0.105	–	976.29
[4], x2 = 0.1473	–	982.03
[4], x2 = 0.203	–	989.81
[4], x2 = 0.2494	–	996.53
[4], x2 = 0.3	–	1004.1
[4], x2 = 0.3488	–	1011.66
[4], x2 = 0.4014	–	1020.11
[4], x2 = 0.4516	–	1028.46
[4], x2 = 0.5005	–	1036.91
[4], x2 = 0.5504	–	1045.89
[4], x2 = 0.5995	–	1055.07
[4], x2 = 0.6509	–	1065.09
[4], x2 = 0.7009	–	1075.28
[4], x2 = 0.752	–	1086.18
[4], x2 = 0.8015	–	1097.29
[4], x2 = 0.851	–	1109.05
[4], x2 = 0.9018	–	1121.84
[4], x2 = 0.9476	–	1134.08

COCCOCCOCCO [2-[2-(2-methoxyethoxy)ethoxy]ethanol]
Conditions	mass density [kg/m3]	refractive index
[1]	1043.3	–
[2]	–	1.43673

COCCOCCOCCO [2-[2-(2-methoxyethoxy)ethoxy]ethanol] + CC(Cl)CCl
Conditions	excess molar enthalpy [kJ/mol]	mass density [kg/m3]
[3], x2 = 0.061	-0.18	–
[3], x2 = 0.091	-0.236	–
[3], x2 = 0.15	-0.382	–
[3], x2 = 0.206	-0.496	–
[3], x2 = 0.26	-0.586	–
[3], x2 = 0.311	-0.6589	–
[3], x2 = 0.36	-0.7083	–
[3], x2 = 0.407	-0.7422	–
[3], x2 = 0.452	-0.7579	–
[3], x2 = 0.496	-0.7588	–
[3], x2 = 0.558	-0.7358	–
[3], x2 = 0.597	-0.7037	–
[3], x2 = 0.654	-0.6383	–
[3], x2 = 0.707	-0.555	–
[3], x2 = 0.757	-0.464	–
[3], x2 = 0.805	-0.366	–
[3], x2 = 0.851	-0.263	–
[3], x2 = 0.908	-0.137	–
[3], x2 = 0.949	-0.0603	–
[4], x2 = 0.0554	–	1047.4
[4], x2 = 0.1	–	1050.82
[4], x2 = 0.1507	–	1054.88
[4], x2 = 0.1999	–	1058.91
[4], x2 = 0.2535	–	1063.43
[4], x2 = 0.2977	–	1067.32
[4], x2 = 0.3483	–	1071.88
[4], x2 = 0.401	–	1076.8
[4], x2 = 0.4512	–	1081.66
[4], x2 = 0.5013	–	1086.65
[4], x2 = 0.5522	–	1091.89
[4], x2 = 0.6013	–	1097.16
[4], x2 = 0.648	–	1102.3
[4], x2 = 0.7005	–	1108.34
[4], x2 = 0.7514	–	1114.4
[4], x2 = 0.7997	–	1120.38
[4], x2 = 0.8567	–	1127.98
[4], x2 = 0.8993	–	1133.84
[4], x2 = 0.9502	–	1141.27

CCCCOCCOCCO [3,6-dioxa-1-decanol]
Conditions	mass density [kg/m3]	refractive index
[1]	948.48	–
[2]	–	1.42998

CCCCOCCOCCO [3,6-dioxa-1-decanol] + CC(Cl)CCl
Conditions	excess molar enthalpy [kJ/mol]	mass density [kg/m3]
[3], x2 = 0.066	-0.163	–
[3], x2 = 0.098	-0.209	–
[3], x2 = 0.161	-0.308	–
[3], x2 = 0.191	-0.36	–
[3], x2 = 0.248	-0.411	–
[3], x2 = 0.303	-0.449	–
[3], x2 = 0.355	-0.4689	–
[3], x2 = 0.404	-0.4729	–
[3], x2 = 0.45	-0.4621	–
[3], x2 = 0.495	-0.441	–
[3], x2 = 0.558	-0.392	–
[3], x2 = 0.598	-0.357	–
[3], x2 = 0.654	-0.287	–
[3], x2 = 0.707	-0.215	–
[3], x2 = 0.757	-0.144	–
[3], x2 = 0.803	-0.0779	–
[3], x2 = 0.847	-0.019	–
[3], x2 = 0.902	0.035	–
[3], x2 = 0.953	0.0412	–
[4], x2 = 0.052	–	954.88
[4], x2 = 0.1	–	961.07
[4], x2 = 0.155	–	968.38
[4], x2 = 0.1997	–	974.56
[4], x2 = 0.2496	–	981.76
[4], x2 = 0.3037	–	989.93
[4], x2 = 0.3497	–	997.2
[4], x2 = 0.4033	–	1006.02
[4], x2 = 0.4504	–	1014.14
[4], x2 = 0.4998	–	1023.03
[4], x2 = 0.5535	–	1033.23
[4], x2 = 0.6001	–	1042.57
[4], x2 = 0.6494	–	1052.96
[4], x2 = 0.7024	–	1064.78
[4], x2 = 0.7527	–	1076.67
[4], x2 = 0.8024	–	1089.22
[4], x2 = 0.8488	–	1101.75
[4], x2 = 0.901	–	1116.84
[4], x2 = 0.9479	–	1131.48

CCCCOCCOCCOCCO [triethylene glycol monobutyl ether]
Conditions	mass density [kg/m3]	refractive index
[1]	988.44	–
[2]	–	1.43973

CCCCOCCOCCOCCO [triethylene glycol monobutyl ether] + CC(Cl)CCl
Conditions	excess molar enthalpy [kJ/mol]	mass density [kg/m3]
[3], x2 = 0.079	-0.242	–
[3], x2 = 0.117	-0.326	–
[3], x2 = 0.154	-0.427	–
[3], x2 = 0.19	-0.504	–
[3], x2 = 0.256	-0.612	–
[3], x2 = 0.317	-0.697	–
[3], x2 = 0.346	-0.7305	–
[3], x2 = 0.401	-0.7777	–
[3], x2 = 0.452	-0.7999	–
[3], x2 = 0.5	-0.8005	–
[3], x2 = 0.545	-0.7866	–
[3], x2 = 0.606	-0.7377	–
[3], x2 = 0.645	-0.6896	–
[3], x2 = 0.698	-0.608	–
[3], x2 = 0.746	-0.516	–
[3], x2 = 0.805	-0.39	–
[3], x2 = 0.859	-0.266	–
[3], x2 = 0.907	-0.155	–
[3], x2 = 0.951	-0.0688	–
[4], x2 = 0.0919	–	996.32
[4], x2 = 0.1463	–	1001.35
[4], x2 = 0.2006	–	1006.67
[4], x2 = 0.2501	–	1011.79
[4], x2 = 0.3036	–	1017.68
[4], x2 = 0.3548	–	1023.63
[4], x2 = 0.4015	–	1029.38
[4], x2 = 0.4519	–	1035.95
[4], x2 = 0.5032	–	1043.04
[4], x2 = 0.5498	–	1049.9
[4], x2 = 0.6016	–	1058.03
[4], x2 = 0.6526	–	1066.61
[4], x2 = 0.701	–	1075.35
[4], x2 = 0.7502	–	1084.93
[4], x2 = 0.8009	–	1095.6
[4], x2 = 0.851	–	1107.21
[4], x2 = 0.9003	–	1119.7
[4], x2 = 0.9483	–	1133.01

Source: the NIST ThermoML archive (doi:10.1016/j.fluid.2009.06.018)
